Data taken from PMC10687080, “Resurrecting ancestral antibiotics: unveiling the origins of modern lipid II targeting glycopeptides” (Nature Communications, 2023).

Key:
ANC1 = target: T1, ANC1 (synthetic construct, UniProt Z9HSK4K2R8); experiment: NADH coupled pyrophosphate release assay; type: biochemical; details: 1 mM substrate, 0.5 mM ATP, 10 mM MgCl2, pH 7.4, 30 °C
T1 construct: resurrected ancestral A-domain, N-terminal His6-SUMO, C-terminal STREP tag, co-expressed with Tcp13 in E. coli BL21(DE3); with MbtH-like protein Tcp13 (Actinoplanes teichomyceticus)

ANC2 (ANC2int) = target: T2, ANC2 (ANC2int) (synthetic construct, UniProt Z9RCC4OUL6); experiment: NADH coupled pyrophosphate release assay; type: biochemical; details: 1 mM substrate, 0.5 mM ATP, 10 mM MgCl2, pH 7.4, 30 °C
T2 construct: resurrected ancestral A-domain, N-terminal His6-SUMO, C-terminal STREP tag, co-expressed with Tcp13 in E. coli BL21(DE3); with MbtH-like protein Tcp13 (Actinoplanes teichomyceticus)

N[C@@H](C(=O)O)c1ccc(O)cc1 [D-Hpg]
NADH coupled pyrophosphate release assay (ANC1): with a fourfold preference for the L-form

CC(C)C[C@@H](N)C(=O)O [D-Leu]
NADH coupled pyrophosphate release assay (ANC2 (ANC2int)): ANC2 and ANC3 were both selective for Leu

CC(C)C[C@H](N)C(=O)O [L-Leu]
NADH coupled pyrophosphate release assay (ANC2 (ANC2int)): ANC2 and ANC3 were both selective for Leu
